The text below walks through data of US7449463B2, “Morpholinyl containing benzimidazoles as inhibitors of respiratory syncytial virus replication” (Tibotec Pharmaceuticals Ltd., priority 2003, dated 2008).

The subject of data set [1] is Respiratory Syncytial Virus. Kind of data set: microbe, parasite or virus in culture. To be noted: for EC50: human respiratory syncytial virus. It is filed as cell-based. From the text:
In vitro Screening for Activity against Respiratory Syncytial Virus.
The percent protection against cytopathology caused by viruses (antiviral activity or EC50) achieved by tested compounds and their cytotoxicity (CC50) are both calculated from dose-response curves. The selectivity of the antiviral effect is represented by the selectivity index (SI), calculated by dividing the CC50 (cytotoxic dose for 50% of the cells) by the EC50 (antiviral activity for 50% of the cells).
Automated tetrazolium-based colorimetric assays were used for determination of EC50 and CC50 of test compounds. Flat-bottom, 96-well plastic microtiter trays were filled with 180 μl of Eagle's Basal Medium, supplemented with 5% FCS (0% for FLU) and 20 mM Hepes buffer. Subsequently, stock solutions (7.8× final test concentration) of compounds were added in 45 μl volumes to a series of triplicate wells so as to allow simultaneous evaluation of their effects on virus- and mock-infected cells. Five five-fold dilutions were made directly in the microtiter trays using a robot system. Untreated virus controls, and HeLa cell controls were included in each test. Approximately 100 TCID50 of Respiratory Syncytial Virus was added to two of the three rows in a volume of 50 μl. The same volume of medium was added to the third row to measure the cytotoxicity of the compounds at the same concentrations as those used to measure the antiviral activity. After two hours of incubation, a suspension (4×10^5 cells/ml) of HeLa cells was added to all wells in a volume of 50 μl. The cultures were incubated at 37° C. in a 5% CO2 atmosphere. Seven days after infection the cytotoxicity and the antiviral activity was examined spectrophotometrically. To each well of the microtiter tray, 25 μl of a solution of MTT (3-(4,5-dimethylthiazol-2-yl)-2,5-diphenyltetrazolium bromide) was added. The trays were further incubated at 37° C. for 2 hours, after which the medium was removed from each cup. Solubilization of the formazan crystals was achieved by adding 100 μl 2-propanol. Complete dissolution of the formazan crystals were obtained after the trays have been placed on a plate shaker for 10 min. Finally, the absorbances were read in an eight-channel computer-controlled photometer (Multiskan MCC, Flow Laboratories) at two wavelengths (540 and 690 nm). The absorbance measured at 690 nm was automatically subtracted from the absorbance at 540 nm, so as to eliminate the effects of non-specific absorption.

The mark [2] stands for this setting: 168 h, RSV-infected HeLa cells, MTT readout seven days after infection, −log of EC50 in molar units.
[3] abbreviates: pEC50 (−log of EC50 when expressed in molar units), protection against RSV cytopathology.
Where [4] appears, read: RSV-infected HeLa cells, MTT readout seven days after infection, −log of EC50 in molar units.

Usually melting point stands for the temperature of the solid-liquid transition. Usually EC50 stands for the concentration giving half of the maximal effect. High values mean a need for much substance, low ones an effect from little substance. The molecule `Cc1ccc(S(=O)(=O)CCO)c(NCc2ccc3nc(NCCCN4CCOCC4)n(Cc4nc(C)ccc4O)c3c2)c1` [Compound 12] returned a melting point of 170 °C. For the same molecule, a half-maximal response in data set [1] (setting [2]) (EC50) required 0.251 nM.

Take `Cc1ccc(O)c(Cn2c(NCCCN3CCOCC3)nc3ccc(Cc4c(C)cc(NCCO)cc4C)cc32)n1` [Compound 143, 2-[6-[4-(2-hydroxy-ethylamino)-2,6-dimethylbenzyl]-2-(3-morpholin-4-yl-propylamino)-benzoimidazol-1-ylmethyl]-6-methyl-pyridin-3-ol]: the melting point turned out to be 162 °C. In data set [1] (setting [2]), a half-maximal response (EC50) required 10 nM.

For the molecule `Cc1ccc(CCCO)c(NCc2ccc3nc(NCCCN4CCOCC4)n(Cc4cccc5cccnc45)c3c2)c1` [Compound 234, 3-(4-Methyl-2-{[2-(3-morpholin-4-yl-propylamino)-3-quinolin-8-ylmethyl-3H-benzoimidazol-5-ylmethyl]-amino}-phenyl)-propan-1-ol], the melting point was found to be 165 °C. In addition, the response in data set [1] (setting [3]) was half-maximal at 5.01 nM (EC50).

For the molecule `Cc1cc(C)cc(NCc2ccc3nc(NCCCN4CCOCC4)n(Cc4nc(C)ccc4O)c3c2)c1` [Compound 23, 2-[6-[(3,5-dimethyl-phenylamino)-methyl]-2-(3-morpholin-4-yl-propylamino)-benzoimidazol-1-ylmethyl]-6-methyl-pyridin-3-ol], the melting point was found to be 199 °C. This molecule also showed an EC50 in data set [1] (setting [2]) of 1 nM.

For `Cc1ccc2c(c1)N(Cc1ccc3nc(NCCCN4CCOCC4)n(Cc4nc(C)ccc4O)c3c1)CC2` [Compound 153], the melting point was 212 °C. This molecule had a concentration for a half-maximal effect (EC50) in data set [1] (setting [2]) of 50.1 nM.

As for `CCn1ncc(Cc2ccc3nc(NCCCN4CCOCC4)n(Cc4nc(C)ccc4O)c3c2)c1NCCO` [Compound 152], the melting point is 168 °C. In addition, the EC50 in data set [1] (setting [2]) is 7.94 nM.

Take `Cc1cccc(Cn2c(NCCCN3CCOCC3)nc3ccc(CNc4ccccc4CCO)cc32)n1` [Compound 333]: the Activity in data set [1] (setting [3]) worked out at 5.5.

In data set [1] (setting [4]), `C#Cc1cccc(N(CCO)Cc2ccc3nc(NCCCN4CCOCC4)n(Cc4nc(C)ccc4O)c3c2)c1` [Compound 99] showed an Activity of 8.5.

In turn, `Cc1nc2c(nc1C)C(n1c(NCCCN3CCOCC3)nc3cc(CO)ccc31)CCC2` (centres unmarked) [Compound 336] displayed an Activity in data set [1] (setting [3]) of 5.4.

Turning to `Cc1ccc(O)c(Cn2c(NCCCN3CCOCC3)nc3ccc(CNc4cc(C(C)C)ccc4CCO)cc32)n1` [Compound 17], in data set [1] (setting [4]), the Activity worked out at 9.3.

Molecule `Cc1ccc(O)c(Cn2c(NCCCN3CCOCC3)nc3ccc(CN(CCO)c4ccc(C#N)cc4)cc32)n1` [Compound 88] gave an Activity in data set [1] (setting [4]) of 9.1.

The molecule `Cc1ccc(O)c(Cn2c(NC3CCN(CCN4CCOCC4)CC3)nc3c(C)cccc32)n1` [Compound 166] gave an Activity in data set [1] (setting [4]) of 6.8.

`Cc1ccc(O)c(Cn2c(NCCCN3C[C@@H](C)O[C@@H](C)C3)nc3ccc(CO)cc32)n1` [Compound 175] had an Activity in data set [1] (setting [4]) of 6.2.

In the case of `Cc1ccc(O)c(Cn2c(NCCCN3CCOCC3)nc3ccc(CNc4cc(C#N)ccc4CCO)cc32)n1` [Compound 1], in data set [1] (setting [4]), the Activity was found to be 10.

Regarding `C#Cc1ccc(CCO)c(NCc2ccc3nc(NCCCN4CCOCC4)n(Cc4cccc5cccnc45)c3c2)c1` [Compound 235], the Activity in data set [1] (setting [3]) is 8.3.

The molecule `Cc1ccc(O)c(Cn2c(NCCCN3CCOCC3)nc3ccc(CNc4cccc(CCO)c4)cc32)n1` [Compound 47] came in with an Activity in data set [1] (setting [4]) of 7.9.

As for `Cc1cc(C)cc(NCc2ccc3c(c2)nc(NCCCN2CCOCC2)n3Cc2nc(C)ccc2O)c1` [Compound 51], the Activity in data set [1] (setting [4]) is reported as 7.2.

Take `Cc1ccc(O)c(Cn2c(NCCCN3CCOCC3)nc3ccc(CN(CCCO)c4cccc(Br)c4)cc32)n1` [Compound 95]: in data set [1] (setting [4]), the Activity turned out to be 8.6.

On to `Cc1ccc(O)c(Cn2c(NCCCN3CCOCC3)nc3ccc(CN(CCO)c4ccccc4C)cc32)n1` [Compound 110], for which the Activity in data set [1] (setting [4]) came out at 7.8.

For the molecule `Cc1ccc(O)c(Cn2c(NCCCN3CCOCC3)nc3ccc(CNc4ccccc4C(N)=O)cc32)n1` [Compound 45], in data set [1] (setting [4]), the Activity is given as 7.9.

With `Cc1cc(C)cc(N(CCCO)Cc2ccc3nc(NCCCN4CCOCC4)n(Cc4nc(C)ccc4O)c3c2)c1` [Compound 63], the Activity in data set [1] (setting [4]) was found to be 9.3.

In data set [1] (setting [4]), `Cc1ccc(O)c(Cn2c(NCCCN3CCOCC3)nc3ccc(CNc4cc(Br)ccc4CCO)cc32)n1` [Compound 11] displayed an Activity of 9.6.

In the case of `Cc1nc(C)c(Cn2c(NCCCN3CCOCC3)nc3ccc(CNc4ccc(C(N)=O)cc4)cc32)nc1C` [Compound 291], the Activity in data set [1] (setting [3]) is listed as 7.

As for `COc1ccc(C)nc1Cn1c(NCCCN2CCOCC2)nc2ccc(CO)cc21` [Compound 346], in data set [1] (setting [3]), the Activity is listed as 4.9.

The molecule `Cc1ccc(O)c(Cn2c(NCCCN3CCOCC3)nc3ccc(CNc4ccccc4CCO)cc32)n1` [Compound 22] gave an Activity in data set [1] (setting [4]) of 9.1.

Consider `Cc1nc2c(nc1C)C(n1c(NCCCN3CCOCC3)nc3cc(CNc4ccccc4CO)ccc31)CCC2` (centres unmarked) [Compound 287], for which the Activity in data set [1] (setting [3]) turned out to be 7.1.

The molecule `Cc1cccc(Cn2c(NCCCN3CCOCC3)nc3ccc(CNc4cccc(C)c4CCO)cc32)n1` [Compound 335] returned an Activity in data set [1] (setting [3]) of 5.5.

As for `Cc1ccc(O)c(Cn2c(NCCCN3CCOCC3)nc3ccc(CNc4cc(C(N)=O)ccc4CCO)cc32)n1` [Compound 44], the Activity in data set [1] (setting [4]) turned out to be 8.1.

In data set [1] (setting [4]), `Cc1ccc(O)c(Cn2c(NCCCN3CCOCC3)nc3ccc(CNc4cccc(Br)c4)cc32)n1` [Compound 26] registered an Activity of 8.7.

In data set [1] (setting [4]), `Cc1ccc(O)c(Cn2c(NCCCN3CCOCC3)nc3cc(CO)ccc32)n1` [Compound 53] returned an Activity of 5.6.

Take `Cc1ccc(O)c(Cn2c(NCCCN3CCOCC3)nc3ccc(CNc4ccccc4CCC(N)=O)cc32)n1` [Compound 33]: in data set [1] (setting [4]), the Activity stood at 8.6.

With `CCc1ccccc1NCc1ccc2nc(NCCCN3CCOCC3)n(Cc3nc(C)ccc3O)c2c1` [Compound 41], the Activity in data set [1] (setting [4]) is given as 8.3.

As for `Cc1cccc(Cn2c(NCCCN3CCOCC3)nc3ccc(CNc4ccccc4CCN4CCOCC4)cc32)n1` [Compound 345], in data set [1] (setting [3]), the Activity is 5.

Molecule `C=Cc1ccc(CCO)c(NCc2ccc3nc(NCCCN4CCOCC4)n(Cc4nc(C)ccc4O)c3c2)c1` [Compound 6] gave an Activity in data set [1] (setting [4]) of more than 9.6.

The molecule `Cc1ccc(C#CCO)c(NCc2ccc3nc(NCCCN4CCOCC4)n(Cc4nc(C)ccc4O)c3c2)c1` [Compound 34, 2-[6-{[2-(3-Hydroxy-prop-1-ynyl)-5-methyl-phenylamino]-methyl}-2-(3-morpholin-4-yl-propylamino)-benzoimidazol-1-ylmethyl]-6-methyl-pyridin-3-ol] showed an Activity in data set [1] (setting [4]) of 8.6.

In turn, `Cc1ccc(O)c(Cn2c(NCCCN3CCOCC3)nc3ccc(CNc4cc(S(C)(=O)=O)ccc4CCO)cc32)n1` [Compound 48] gave an EC50 in data set [1] (setting [2]) of 20 nM.

In data set [1] (setting [3]), `Cc1ccc(CCO)c(NCc2ccc3nc(NCCCN4CCOCC4)n(Cc4cccc(C)n4)c3c2)c1` [Compound 275] yielded an Activity of 7.2.

In turn, `C#Cc1cccc(NCc2ccc3nc(NCCCN4CCOCC4)n(Cc4nc(C)ccc4O)c3c2)c1` [Compound 30] yielded an Activity in data set [1] (setting [4]) of 8.6.

`Cc1ccc(O)c(Cn2c(NCCCN3CCOCC3)nc3ccc(CNc4ccccc4CO)cc32)n1` [Compound 29] displayed an Activity in data set [1] (setting [4]) of 8.6.

As to `Cn1cnc2c(Cn3c(NCCCN4CCOCC4)nc4ccc(CNc5ccccc5CCCO)cc43)cccc21` [Compound 224], in data set [1] (setting [3]), the Activity stood at 8.5.

`Cc1nc2c(nc1C)C(n1c(NCCCN3CCOCC3)nc3cc(CNc4ccccc4CCO)ccc31)CCC2` (centres unmarked) [Compound 286] displayed an Activity in data set [1] (setting [3]) of 7.1.

`C#Cc1cccc(NCc2ccc3nc(NCCCN4CCOCC4)n(Cc4nc(C)c(C)nc4C)c3c2)c1` [Compound 290] yielded an Activity in data set [1] (setting [3]) of 7.

Take `Cc1ccc(O)c(Cn2c(NCCCN3CCOCC3)nc3ccc(CNc4ccccc4CCN4CCOCC4)cc32)n1` [Compound 42]: the Activity in data set [1] (setting [4]) is on record as 8.3.

`Cc1nc2c(nc1C)C(n1c(NCCCN3CCOCC3)nc3cc(CNc4cc(Cl)cc(Cl)c4)ccc31)CCC2` (centres unmarked) [Compound 331] came in with an Activity in data set [1] (setting [3]) of 5.7.

With `Cc1ccc(O)c(Cn2c(NCCCN3CCOCC3)nc3ccc(CNc4cccc(C)c4CO)cc32)n1` [Compound 43], the Activity in data set [1] (setting [4]) turned out to be 8.2.

In data set [1] (setting [3]), `Cc1nc2c(nc1C)C(n1c(NCCCN3CCOCC3)nc3cc(CNc4ccccc4C(N)=O)ccc31)CCC2` (centres unmarked) [Compound 340] returned an Activity of 5.3.

As to `Cc1ccc(O)c(Cn2c(NCCCN3CCOCC3)nc3ccc(CO)cc32)n1` [Compound 52], in data set [1] (setting [4]), the Activity was found to be 7.2.
